In this assay the target is HEK-293 cells expressing a Kif5b-RET fusion protein (Homo sapiens, UniProt P07949). The experiment in a line: cell-based.

Each structure is given as a SMILES string. pIC50: −log10 of the molar value.

This passage reports IC50 results from patent publication US10144734B2, “Substituted pyrazolo[1,5-A]pyridine compounds as RET kinase inhibitors” (Array BioPharma, Inc., priority 2016, dated 2018).

HEK-293 cells expressing a Kif5b-RET fusion protein, sequence (P07949 29-1114 limits assumed): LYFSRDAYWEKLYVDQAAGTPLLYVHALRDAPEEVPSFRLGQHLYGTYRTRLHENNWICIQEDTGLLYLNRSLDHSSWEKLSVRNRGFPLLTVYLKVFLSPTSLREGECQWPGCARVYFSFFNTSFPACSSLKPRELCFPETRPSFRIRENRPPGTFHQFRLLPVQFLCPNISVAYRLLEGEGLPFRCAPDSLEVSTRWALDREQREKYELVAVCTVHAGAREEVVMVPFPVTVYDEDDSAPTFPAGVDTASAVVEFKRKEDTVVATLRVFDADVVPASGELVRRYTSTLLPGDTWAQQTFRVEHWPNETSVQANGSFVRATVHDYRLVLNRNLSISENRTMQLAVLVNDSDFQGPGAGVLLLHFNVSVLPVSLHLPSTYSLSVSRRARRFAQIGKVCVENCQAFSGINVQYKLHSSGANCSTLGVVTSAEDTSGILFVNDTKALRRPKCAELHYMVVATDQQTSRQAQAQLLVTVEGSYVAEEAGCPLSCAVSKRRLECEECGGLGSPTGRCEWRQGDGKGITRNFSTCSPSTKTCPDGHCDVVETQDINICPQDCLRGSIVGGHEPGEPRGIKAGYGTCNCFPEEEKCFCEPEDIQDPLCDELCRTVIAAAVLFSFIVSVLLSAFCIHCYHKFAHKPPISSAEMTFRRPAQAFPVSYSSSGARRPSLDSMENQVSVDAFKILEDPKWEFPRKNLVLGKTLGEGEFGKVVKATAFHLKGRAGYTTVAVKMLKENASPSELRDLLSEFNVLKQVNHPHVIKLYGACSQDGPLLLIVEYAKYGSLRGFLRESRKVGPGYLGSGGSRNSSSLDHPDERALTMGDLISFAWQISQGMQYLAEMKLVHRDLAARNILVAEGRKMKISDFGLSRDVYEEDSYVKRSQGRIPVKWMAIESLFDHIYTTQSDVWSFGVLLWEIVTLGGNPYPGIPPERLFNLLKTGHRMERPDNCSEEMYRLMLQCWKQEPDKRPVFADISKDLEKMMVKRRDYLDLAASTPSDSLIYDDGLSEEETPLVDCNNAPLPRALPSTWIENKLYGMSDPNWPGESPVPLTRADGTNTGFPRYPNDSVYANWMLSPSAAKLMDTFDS

The term pIC50 denotes the negative decadic logarithm of the IC50, by convention in mol/L. `CCOc1cc(-c2ccc(N3C[C@H]4C[C@@H](C3)[C@H]4Nc3nc(C)ccc3F)nc2)c2c(C#N)cnn2c1` [Example 377, 6-ethoxy-4-(6-((1R,5 S,6r)-6-((3-fluoro-6-methylpyridin-2-yl)amino)-3-azabicyclo[3.1.1]heptan-3-yl)pyridin-3-yl)pyrazolo[1,5-a]pyridine-3-carbonitrile]: the pIC50 is 7.40.
